Laboratory results taken from ChEMBL document CHEMBL6096675 (J Med Chem, 2025).

Experiments:
[1] = biological target: von Hippel-Lindau disease tumor suppressor/SWI/SNF-related matrix-associated actin-dependent regulator of chromatin subfamily A member 4 (Homo sapiens, UniProt P51532+P40337); assay: PROTAC activity at SMARCA4/VHL1 in human HeLa cells assessed as protein degradation by Nano-Glo HiBiT lytic detection assay; format: cell-based
[2] = biological target: von Hippel-Lindau disease tumor suppressor/SWI/SNF-related matrix-associated actin-dependent regulator of chromatin subfamily A member 2 (Homo sapiens, UniProt P51531+P40337); assay: PROTAC activity at SMARCA2/VHL1 in human HeLa cells assessed as protein degradation by Nano-Glo HiBiT lytic detection assay; format: cell-based
Chain of von Hippel-Lindau disease tumor suppressor/SWI/SNF-related matrix-associated actin-dependent regulator of chromatin subfamily A member 2 (P51531 whole entry): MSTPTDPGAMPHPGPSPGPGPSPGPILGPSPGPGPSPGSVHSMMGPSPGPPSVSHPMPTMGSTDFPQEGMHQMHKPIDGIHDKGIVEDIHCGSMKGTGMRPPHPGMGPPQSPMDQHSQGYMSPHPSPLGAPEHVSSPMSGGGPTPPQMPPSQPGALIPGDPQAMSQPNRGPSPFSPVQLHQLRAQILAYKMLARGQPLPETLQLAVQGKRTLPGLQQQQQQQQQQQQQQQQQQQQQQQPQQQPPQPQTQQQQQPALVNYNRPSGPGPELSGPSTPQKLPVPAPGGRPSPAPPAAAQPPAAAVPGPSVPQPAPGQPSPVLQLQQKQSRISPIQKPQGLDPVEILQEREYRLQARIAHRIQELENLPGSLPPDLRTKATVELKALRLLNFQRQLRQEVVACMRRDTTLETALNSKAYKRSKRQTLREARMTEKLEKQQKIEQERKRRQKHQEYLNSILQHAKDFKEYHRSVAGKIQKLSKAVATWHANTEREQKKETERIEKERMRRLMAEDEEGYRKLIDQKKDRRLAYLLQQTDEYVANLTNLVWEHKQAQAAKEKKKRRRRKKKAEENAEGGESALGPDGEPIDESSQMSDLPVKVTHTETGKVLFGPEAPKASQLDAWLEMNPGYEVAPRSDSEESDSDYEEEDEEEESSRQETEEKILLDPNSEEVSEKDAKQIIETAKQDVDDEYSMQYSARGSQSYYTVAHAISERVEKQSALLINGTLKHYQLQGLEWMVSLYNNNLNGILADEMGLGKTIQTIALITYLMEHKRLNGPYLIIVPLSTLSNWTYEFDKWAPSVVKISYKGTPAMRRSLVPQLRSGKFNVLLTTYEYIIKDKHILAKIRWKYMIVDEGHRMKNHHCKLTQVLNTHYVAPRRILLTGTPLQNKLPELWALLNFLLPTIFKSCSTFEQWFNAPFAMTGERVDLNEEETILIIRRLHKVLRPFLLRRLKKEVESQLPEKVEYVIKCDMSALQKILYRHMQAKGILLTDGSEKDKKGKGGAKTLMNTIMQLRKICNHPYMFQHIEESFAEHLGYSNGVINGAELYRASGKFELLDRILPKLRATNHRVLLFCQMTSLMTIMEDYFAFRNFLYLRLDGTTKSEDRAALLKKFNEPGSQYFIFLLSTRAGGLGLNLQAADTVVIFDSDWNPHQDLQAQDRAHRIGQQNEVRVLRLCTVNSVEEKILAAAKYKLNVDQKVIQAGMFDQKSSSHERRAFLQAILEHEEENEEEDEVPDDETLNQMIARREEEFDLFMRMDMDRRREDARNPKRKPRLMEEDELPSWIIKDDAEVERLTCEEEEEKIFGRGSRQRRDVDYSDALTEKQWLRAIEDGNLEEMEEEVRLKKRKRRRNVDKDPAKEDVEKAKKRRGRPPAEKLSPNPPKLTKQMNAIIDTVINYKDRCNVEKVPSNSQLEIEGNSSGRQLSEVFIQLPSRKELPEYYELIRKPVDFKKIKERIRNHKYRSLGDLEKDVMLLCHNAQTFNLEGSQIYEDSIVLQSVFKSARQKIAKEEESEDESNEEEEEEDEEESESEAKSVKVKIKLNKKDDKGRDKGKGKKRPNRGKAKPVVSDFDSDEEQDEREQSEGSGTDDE
Chain of von Hippel-Lindau disease tumor suppressor/SWI/SNF-related matrix-associated actin-dependent regulator of chromatin subfamily A member 2 (P40337 whole entry): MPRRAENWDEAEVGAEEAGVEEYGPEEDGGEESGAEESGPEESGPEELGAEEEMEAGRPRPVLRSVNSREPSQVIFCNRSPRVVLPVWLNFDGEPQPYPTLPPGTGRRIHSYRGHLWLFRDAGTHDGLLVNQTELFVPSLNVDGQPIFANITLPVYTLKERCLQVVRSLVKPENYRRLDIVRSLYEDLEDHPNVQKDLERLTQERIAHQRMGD

[3] = PROTAC activity at SMARCA2/E3 ubiquitin ligase (unknown origin) assessed as protein degradation; set-up: species or system Homo sapiens
Homo sapiens [4] = species: Homo sapiens; assay: PROTAC activity at SMARCA4/E3 ubiquitin ligase (unknown origin) assessed as maximal protein degradation
[5] = PROTAC activity at SMARCA4/E3 ubiquitin ligase (unknown origin) assessed as protein degradation; set-up: species or system Homo sapiens
Homo sapiens [6] = species: Homo sapiens; assay: PROTAC activity at SMARCA2/E3 ubiquitin ligase (unknown origin) assessed as maximal protein degradation
Homo sapiens [7] = species: Homo sapiens; assay: Selectivity ratio, ratio of DC50 for PROTAC activity at SMARCA2/E3 ubiquitin ligase (unknown origin) to DC50 for PROTAC activity at SMARCA4/E3 ubiquitin ligase (unknown origin
[8] = Plasma concentration in SCID mouse xenografted with human NCI-H838 cells at 10 mg/kg, iv measured after 96 hrs by LC-MS/MS analysis; format: ADME, organism-based
[9] = Drug uptake in tumor of human NCI-H838 cells xenografted SCID mouse model at 10 mg/kg, iv measured after 96 hrs by LC-MS/MS analysis; format: ADME, organism-based, Neoplasm; conditions: read-out: Drug uptake
[10] = Drug uptake in tumor of human NCI-H838 cells xenografted SCID mouse model at 10 mg/kg, iv measured after 24 hrs by LC-MS/MS analysis; format: ADME, organism-based, Neoplasm; conditions: read-out: Drug uptake
[11] = Plasma concentration in SCID mouse xenografted with human NCI-H838 cells at 10 mg/kg, iv measured after 24 hrs by LC-MS/MS analysis; format: ADME, organism-based
[12] = biological target: SWI/SNF-related matrix-associated actin-dependent regulator of chromatin subfamily A member 4 (Homo sapiens, UniProt P51532); assay: Inhibition of SMARCA4 (unknown origin)
Chain of SWI/SNF-related matrix-associated actin-dependent regulator of chromatin subfamily A member 4 (P51532 whole entry): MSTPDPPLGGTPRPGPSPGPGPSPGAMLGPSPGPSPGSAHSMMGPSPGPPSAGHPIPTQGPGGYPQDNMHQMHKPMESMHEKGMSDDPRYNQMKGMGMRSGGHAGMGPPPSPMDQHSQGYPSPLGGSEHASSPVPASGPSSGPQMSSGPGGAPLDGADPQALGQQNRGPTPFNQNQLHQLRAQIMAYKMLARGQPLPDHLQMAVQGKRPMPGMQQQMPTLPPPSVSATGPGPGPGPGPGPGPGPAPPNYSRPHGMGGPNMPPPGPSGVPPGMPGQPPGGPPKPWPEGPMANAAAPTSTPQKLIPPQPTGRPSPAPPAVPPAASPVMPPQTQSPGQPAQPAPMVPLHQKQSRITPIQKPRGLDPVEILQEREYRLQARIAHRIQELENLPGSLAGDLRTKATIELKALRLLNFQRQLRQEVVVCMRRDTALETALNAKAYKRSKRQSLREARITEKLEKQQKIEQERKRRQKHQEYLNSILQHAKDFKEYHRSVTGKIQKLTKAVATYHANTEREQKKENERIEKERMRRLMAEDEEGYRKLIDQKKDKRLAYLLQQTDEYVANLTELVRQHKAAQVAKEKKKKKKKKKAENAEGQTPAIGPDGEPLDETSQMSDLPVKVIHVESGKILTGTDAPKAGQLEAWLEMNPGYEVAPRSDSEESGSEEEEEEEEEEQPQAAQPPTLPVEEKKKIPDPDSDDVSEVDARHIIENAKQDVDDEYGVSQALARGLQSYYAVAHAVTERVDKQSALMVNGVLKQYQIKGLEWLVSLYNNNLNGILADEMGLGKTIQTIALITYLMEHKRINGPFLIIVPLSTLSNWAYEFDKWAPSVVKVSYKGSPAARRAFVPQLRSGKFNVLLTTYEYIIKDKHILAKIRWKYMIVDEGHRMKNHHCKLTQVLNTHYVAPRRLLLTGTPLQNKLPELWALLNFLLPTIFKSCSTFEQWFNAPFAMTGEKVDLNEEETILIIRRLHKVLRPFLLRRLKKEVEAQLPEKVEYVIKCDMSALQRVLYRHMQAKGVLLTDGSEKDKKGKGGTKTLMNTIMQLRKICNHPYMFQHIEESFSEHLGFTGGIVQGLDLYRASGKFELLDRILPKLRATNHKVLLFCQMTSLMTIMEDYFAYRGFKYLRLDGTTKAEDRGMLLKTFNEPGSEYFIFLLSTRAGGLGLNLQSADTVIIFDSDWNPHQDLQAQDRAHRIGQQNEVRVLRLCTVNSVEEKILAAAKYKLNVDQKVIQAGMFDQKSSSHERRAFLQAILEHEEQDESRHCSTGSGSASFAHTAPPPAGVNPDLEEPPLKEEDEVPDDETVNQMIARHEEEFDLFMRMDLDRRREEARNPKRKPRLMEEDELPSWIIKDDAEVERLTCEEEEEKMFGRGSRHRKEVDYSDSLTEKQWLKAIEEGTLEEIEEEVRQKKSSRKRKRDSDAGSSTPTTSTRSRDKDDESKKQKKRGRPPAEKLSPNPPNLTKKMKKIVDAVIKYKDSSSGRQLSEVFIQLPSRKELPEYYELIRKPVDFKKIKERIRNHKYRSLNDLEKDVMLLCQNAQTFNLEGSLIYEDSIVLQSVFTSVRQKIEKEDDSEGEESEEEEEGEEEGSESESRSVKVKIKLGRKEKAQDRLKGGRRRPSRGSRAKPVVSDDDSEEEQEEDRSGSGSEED

[13] = biological target: SWI/SNF-related matrix-associated actin-dependent regulator of chromatin subfamily A member 2 (Homo sapiens, UniProt P51531); assay: Inhibition of SMARCA2 (unknown origin)
Chain of SWI/SNF-related matrix-associated actin-dependent regulator of chromatin subfamily A member 2 (P51531 whole entry): as the sequence (P51531 whole entry) above

Chain of von Hippel-Lindau disease tumor suppressor/SWI/SNF-related matrix-associated actin-dependent regulator of chromatin subfamily A member 4 (P51532 whole entry): as the sequence (P51532 whole entry) above
Chain of von Hippel-Lindau disease tumor suppressor/SWI/SNF-related matrix-associated actin-dependent regulator of chromatin subfamily A member 4 (P40337 whole entry): as the sequence (P40337 whole entry) above

SMILES	DC50 [1] [nM]	DC50 [2] [nM]	other results
Cc1ncsc1-c1ccc([C@H](CC[C@H](C)CCN2CCC(c3ccc4c(c3)n(C3CCCC3)c3nc(=O)c5c(Br)cccc5n43)CC2)NC(=O)[C@@H]2C[C@@H](O)CN2C(=O)[C@@H](NC(=O)C2(F)CC2)C(C)(C)C)cc1	–	–	DC50 [3]: 1 nM; Emax (Homo sapiens [4]): 67%; DC50 [5]: 32 nM; Emax (Homo sapiens [6]): 81%; Ratio (Homo sapiens [7]): 32
Cc1ncsc1-c1ccc(CNC(=O)[C@@H]2C[C@@H](O)CN2C(=O)[C@@H](NC(=O)C2(F)CC2)C(C)(C)C)c(OCCOc2ccc(CN3CCN(c4cc(-c5ccccc5O)nnc4N)CC3)cc2)c1	–	–	DC50 [3]: 6 nM; Emax (Homo sapiens [4]): > 95%; DC50 [5]: 11 nM; Emax (Homo sapiens [6]): > 95%; Ratio (Homo sapiens [7]): 2
O=c1nc2n(c3cccc(Cl)c13)-c1ccc(C3CCNCC3)cc1C21CCCCC1	–	–	IC50 [12]: 58 nM; IC50 [13]: 43 nM
O=c1nc2n(c3cccc(Cl)c13)-c1cc(C3CCNCC3)ccc1C21CCCCC1	–	–	IC50 [12]: 83 nM; IC50 [13]: 66 nM
Cc1ncsc1-c1ccc([C@H](C)NC(=O)[C@@H]2C[C@@H](O)CN2C(=O)[C@@H](NC(=O)[C@H]2CC[C@H](CN3CCC(c4ccc5c(c4)C4(CCCCC4)c4nc(=O)c6c(Cl)cccc6n4-5)CC3)CC2)C(C)(C)C)cc1	–	6.3	–
Cc1ncsc1-c1ccc([C@H](C)NC(=O)[C@H]2C[C@@H](O)CN2C(=O)[C@@H](c2cc(N3CCC(CN4CCC(O[C@H]5C[C@H](Oc6cc(N7C8CCC7CN(c7cc(-c9ccccc9O)nnc7N)C8)ccn6)C5)CC4)CC3)no2)C(C)C)cc1	–	–	DC50 [3]: 0.04 nM; DC50 [5]: 1.1 nM
COCCOCCOCCOC[C@H](NC(=O)[C@@H]1C[C@@H](O)CN1C(=O)[C@@H](n1cc([C@H]2CC[C@H](CN3CCC(c4ccc5c(c4)-n4c(nc(=O)c6c(Cl)cccc64)C54CCCCC4)CC3)CC2)nn1)C(C)(C)C)c1ccc(-c2scnc2C)cc1	> 1000	2	–
COCCOCCOCCOCCOC[C@H](NC(=O)[C@@H]1C[C@@H](O)CN1C(=O)[C@@H](n1cc([C@H]2CC[C@H](CN3CCC(c4ccc5c(c4)-n4c(nc(=O)c6c(Cl)cccc64)C54CCCCC4)CC3)CC2)nn1)C(C)(C)C)c1ccc(-c2scnc2C)cc1	> 1000	3	–
Cc1ncsc1-c1ccc([C@H](CN2CCC(F)(F)CC2)NC(=O)[C@@H]2C[C@@H](O)CN2C(=O)[C@@H](n2cc([C@H]3CC[C@H](CN4CCC(c5ccc6c(c5)-n5c(nc(=O)c7c(Cl)cccc75)C65CCCCC5)CC4)CC3)nn2)C(C)(C)C)cc1	> 1000	2	–
Cc1ncsc1-c1ccc([C@H](CN2CC(C)(F)C2)NC(=O)[C@@H]2C[C@@H](O)CN2C(=O)[C@@H](n2cc([C@H]3CC[C@H](CN4CCC(c5ccc6c(c5)-n5c(nc(=O)c7c(Cl)cccc75)C65CCCCC5)CC4)CC3)nn2)C(C)(C)C)cc1	> 1000	1	–
CC(C)(C)[C@@H](C(=O)N1C[C@H](O)C[C@H]1C(=O)N[C@@H](CN1CCOCC1)c1ccc(-c2ocnc2C(F)(F)F)cc1)n1cc([C@H]2CC[C@H](CN3CCC(c4ccc5c(c4)-n4c(nc(=O)c6c(Cl)cccc64)C54CCCCC4)CC3)CC2)nn1	> 1000	16	–
Cc1nc(C)c(-c2ccc([C@H](CN3CCOCC3)NC(=O)[C@@H]3C[C@@H](O)CN3C(=O)[C@@H](n3cc([C@H]4CC[C@H](CN5CCC(c6ccc7c(c6)-n6c(nc(=O)c8c(Cl)cccc86)C76CCCCC6)CC5)CC4)nn3)C(C)(C)C)cc2)s1	> 1000	1	–
Cc1ncsc1-c1ccc([C@H](C)NC(=O)[C@@H]2C[C@@H](O)CN2C(=O)[C@@H](NC(=O)[C@H]2CC[C@H](CN3CCC(c4ccc5c(c4)-n4c(nc(=O)c6c(Cl)cccc64)C54CCCCC4)CC3)CC2)C(C)(C)C)cc1	–	8	–

The next lines start with results.

DC50 [1] [nM]	DC50 [2] [nM]	SMILES	other results
> 1000	5	Cc1ncsc1-c1ccc([C@H](CN2CCS(=O)(=O)CC2)NC(=O)[C@@H]2C[C@@H](O)CN2C(=O)[C@@H](n2cc([C@H]3CC[C@H](CN4CCC(c5ccc6c(c5)-n5c(nc(=O)c7c(Cl)cccc75)C65CCCCC5)CC4)CC3)nn2)C(C)(C)C)cc1	–
> 1000	111	Cc1ncsc1-c1ccc([C@H](CN2CCC(C(=O)O)CC2)NC(=O)[C@@H]2C[C@@H](O)CN2C(=O)[C@@H](n2cc([C@H]3CC[C@H](CN4CCC(c5ccc6c(c5)-n5c(nc(=O)c7c(Cl)cccc75)C65CCCCC5)CC4)CC3)nn2)C(C)(C)C)cc1	–
> 1000	228	Cc1ncsc1-c1ccc([C@H](CN2CC(C(=O)O)C2)NC(=O)[C@@H]2C[C@@H](O)CN2C(=O)[C@@H](n2cc([C@H]3CC[C@H](CN4CCC(c5ccc6c(c5)-n5c(nc(=O)c7c(Cl)cccc75)C65CCCCC5)CC4)CC3)nn2)C(C)(C)C)cc1	–
> 1000	1	Cc1ncsc1-c1ccc([C@H](CN2CCOCC2)NC(=O)[C@@H]2C[C@@H](O)CN2C(=O)[C@@H](n2cc([C@H]3CC[C@H](CN4CCC(c5ccc6c(c5)-n5c(nc(=O)c7c(Cl)cccc75)C65CCCCC5)CC4)CC3)nn2)C(C)(C)O)cc1	–
> 1000	0.4	COCCOC[C@H](NC(=O)[C@@H]1C[C@@H](O)CN1C(=O)[C@@H](n1cc([C@H]2CC[C@H](CN3CCC(c4ccc5c(c4)-n4c(nc(=O)c6c(Cl)cccc64)C54CCCCC4)CC3)CC2)nn1)C(C)(C)C)c1ccc(-c2scnc2C)cc1	concentration at 96 h [8]: 8.3 ng/mL; concentration at 96 h [9]: 79 ng/mL; concentration at 24 h [10]: 255 ng/mL; concentration at 24 h [11]: 13 ng/mL
115	0.3	Cc1ncsc1-c1ccc([C@H](C)NC(=O)[C@@H]2C[C@@H](O)CN2C(=O)[C@@H](n2cc([C@H]3CC[C@H](CN4CCC(c5ccc6c(c5)-n5c(nc(=O)c7c(Cl)cccc75)C65CCCCC5)CC4)CC3)nn2)C(C)(C)C)cc1	–
> 1000	2	Cc1ncsc1-c1ccc([C@H](CN2CC(C)(O)C2)NC(=O)[C@@H]2C[C@@H](O)CN2C(=O)[C@@H](n2cc([C@H]3CC[C@H](CN4CCC(c5ccc6c(c5)-n5c(nc(=O)c7c(Cl)cccc75)C65CCCCC5)CC4)CC3)nn2)C(C)(C)C)cc1	–
575	1	Cc1nc(C)c(-c2ccc([C@H](CN3CCOCC3)NC(=O)[C@@H]3C[C@@H](O)CN3C(=O)[C@@H](n3cc([C@H]4CC[C@H](CN5CCC(c6ccc7c(c6)-n6c(nc(=O)c8c(Cl)cccc86)C76CCCCC6)CC5)CC4)nn3)C(C)(C)C)cc2)o1	–
> 1000	1	Cc1ncoc1-c1ccc([C@H](CN2CCOCC2)NC(=O)[C@@H]2C[C@@H](O)CN2C(=O)[C@@H](n2cc([C@H]3CC[C@H](CN4CCC(c5ccc6c(c5)-n5c(nc(=O)c7c(Cl)cccc75)C65CCCCC5)CC4)CC3)nn2)C(C)(C)C)cc1	–
> 1000	0.4	COCCOCCOC[C@H](NC(=O)[C@@H]1C[C@@H](O)CN1C(=O)[C@@H](n1cc([C@H]2CC[C@H](CN3CCC(c4ccc5c(c4)-n4c(nc(=O)c6c(Cl)cccc64)C54CCCCC4)CC3)CC2)nn1)C(C)(C)C)c1ccc(-c2scnc2C)cc1	concentration at 96 h [8]: 4.2 ng/mL; concentration at 96 h [9]: 53 ng/mL; concentration at 24 h [10]: 113 ng/mL; concentration at 24 h [11]: 5.5 ng/mL
430	5	CC(C)(C)[C@@H](C(=O)N1C[C@H](O)C[C@H]1C(=O)N[C@@H](CN1CCOCC1)c1ccc(-c2ccccc2)cc1)n1cc([C@H]2CC[C@H](CN3CCC(c4ccc5c(c4)-n4c(nc(=O)c6c(Cl)cccc64)C54CCCCC4)CC3)CC2)nn1	–
3	0.29	Cc1ncsc1-c1ccc([C@H](C)NC(=O)[C@@H]2C[C@@H](O)CN2C(=O)[C@@H](n2cc([C@H]3CC[C@H](CN4CCC(c5ccc6c(c5)C5(CCCCC5)c5nc(=O)c7c(Cl)cccc7n5-6)CC4)CC3)nn2)C(C)(C)C)cc1	–
2	0.15	Cc1ncsc1-c1ccc([C@H](C)NC(=O)[C@@H]2C[C@@H](O)CN2C(=O)[C@@H](n2cc([C@H]3CC[C@H](CN4CCC(c5ccc6c(c5)C5(CCCCC5)c5nc(=O)c7c(Br)cccc7n5-6)CC4)CC3)nn2)C(C)(C)C)cc1	–
22	0.24	Cc1ncsc1-c1ccc([C@H](C)NC(=O)[C@@H]2C[C@@H](O)CN2C(=O)[C@@H](n2cc([C@H]3CC[C@H](CN4CCC(c5ccc6c(c5)-n5c(nc(=O)c7c(Br)cccc75)C65CCCCC5)CC4)CC3)nn2)C(C)(C)C)cc1	–
789	8	Cc1ccccc1-c1ccc([C@H](CN2CCOCC2)NC(=O)[C@@H]2C[C@@H](O)CN2C(=O)[C@@H](n2cc([C@H]3CC[C@H](CN4CCC(c5ccc6c(c5)-n5c(nc(=O)c7c(Cl)cccc75)C65CCCCC5)CC4)CC3)nn2)C(C)(C)C)cc1	–
222	1	CC(C)(C)[C@@H](C(=O)N1C[C@H](O)C[C@H]1C(=O)N[C@@H](CN1CCOCC1)c1ccc(-c2ccccc2F)cc1)n1cc([C@H]2CC[C@H](CN3CCC(c4ccc5c(c4)-n4c(nc(=O)c6c(Cl)cccc64)C54CCCCC4)CC3)CC2)nn1	–
62	1	Cc1ncsc1-c1ccc([C@H](CN2CCN(C)CC2)NC(=O)[C@@H]2C[C@@H](O)CN2C(=O)[C@@H](n2cc([C@H]3CC[C@H](CN4CCC(c5ccc6c(c5)-n5c(nc(=O)c7c(Cl)cccc75)C65CCCCC5)CC4)CC3)nn2)C(C)(C)C)cc1	–
